Article PMC11922053 (Science Advances, 2025)
Where a SMILES comes first, the peptide text is derived from it. Bridges are numbered along the chain shown (N, C = ends). [ ]: non-standard residue; d: D form. The star is where a group is joined. Biotin = O=C1N[C@H]2[C@H](CS[C@H]2CCCCC(=O)*)N1; 2Nal = N[C@@H](Cc1ccc2ccccc2c1)C(=O)O; Gly(cPent) = N[C@H](C(=O)O)C1CCCC1; Hyp = O=C(O)[C@@H]1C[C@@H](O)CN1; Pen = CC(C)(S)[C@H](N)C(=O)O; Api = NC1(C(=O)O)CCNCC1; Ahx = NCCCCCC(=O)O

Biological target: chymotrypsin (Bos taurus, UniProt P00766)
Test: Protease stability assay with chymotrypsin
Assay type: in vitro ADME
Conditions: NCBP-4 versus CBP; 50:1 by mass, up to 30 min, LC-MS

## CC1(C)SSC[C@H](NC(=O)[C@H](Cc2ccccc2)NC(=O)[C@@H](NC(=O)[C@H](Cc2ccccc2)NC(=O)C2(NC(=O)[C@H](Cc3ccc4ccccc4c3)NC(=O)[C@H](CCCCN)NC(=O)CCCCCNC(=O)[C@@H](N)CCCCNC(=O)CCCC[C@@H]3SC[C@@H]4NC(=O)N[C@@H]43)CCNCC2)C2CCCC2)C(=O)N2C[C@H](O)C[C@H]2C(=O)N[C@@H](Cc2ccccc2)C(=O)N[C@@H](Cc2ccc(O)cc2)C(=O)N[C@@H](Cc2ccc(O)cc2)C(=O)N[C@@H](CCCCN)C(=O)N2C[C@H](O)C[C@H]2C(=O)N[C@@H]1C(=O)N[C@@H](CCCCN)C(N)=O [NCBP-4] (H-K(Biotin)[Ahx]K[2Nal][Api]F[Gly(cPent)]FC[Hyp]FYYK[Hyp][Pen]K-NH2; disulfide 9-16; N-terminus assumed)
  fold increase in half-life with chymotrypsin relative to CBP: 40 fold
